Entries after “also recorded” stand apart in the source; their conditions may differ.
Tests used:
Rd1 mice = assay: Intravitreal injection of UNC1999 in PN8 Rd1 mice, H3K27me3 and TUNEL staining of the ONL; type: in vivo, mouse
Procedure: The UNC1999 inhibitor was supplied as lyophilized powder from commercial source (#SML0778-5MG, SIGMA). The stock solution was prepared in 100% DMSO according to the manufacturer's instructions. Sufficient amount of DMSO was added to the vial to generate a 10 mM stock solution. For optimal injection procedure, we reviewed three different parameters prior to intermediate solution preparation. Firstly, considering the volume of the vitreous of young mice (post-natal day 8, PN08) which is approximately 5.3 μl; the maximum safe amount (1 μl) that could be injected (final volume 6.3 μl) and the calculated effective dose of […] obtained from increasing doses along with cell culture experiments (see below). Therefore, the stock solution was then diluted in physiological buffer (0.9% NaCl) in order to make a 20 μM intermediate solution for subsequent experiments.
(§1) The compound was delivered by intravitreal injection into the eyeball of PN08 Rd1 littermates. The animals (08 in total) were first anesthetized intraperitoneally (ip) with a mixture of 20 mg/kg Ketamine+300 μg/Kg of Dorbene. After 30 min, the recovery was performed by an ip injection of 300 μg/kg of Alzane. When necessary, the future edge of the eyelid was forced to open and maintained with forceps. The injection needle filled with 20 μM UNC1999 solution was inserted carefully into the vitreous through the sclera. A single dose (1 μl) of the intermediate solution was delivered slowly, leading to a final concentration of 2.5-3 μM, with a corresponding DMSO concentration of 0.0317%. For each animal, one eye received the compound whereas the other eye was injected with the vehicle. The injected animals were kept warmed and benefited from closest inspection until they wake up from anesthesia. 400 μl of 5% glucose and paracetamol were administered subcutaneously and intraperitoneally respectively to help for recovery before transferred back to their normal habits. The mice were sacrificed 4 days post injection and the eyeball excised as described below. Before processing, the eyes were carefully inspected for any sign of cataracts and unexpected lesions. Similarly, a single dose of UNC1999 (solution of 36 μM) was administered by intravitreal injection to 2 months old Fam161a^−/− mice (slow degenerative process), with repeated injection every week. The animal was sacrificed 4 days after the fourth injection.
The animals were sacrificed by a 7 min exposure to CO2. The Histology was performed on enucleated eyes. Prior to cryosectioning, the eye globes were excised from the optic nerve and were perforated at the cornea level (a single tiny hole) with 25 G needle and transfer to 4% PFA (w/v) at RT. After 1 h incubation period, the eyes were washed in PBS 1× before being transferred in 30% sucrose over night at 4° C. The eyes were embedded in yazula and frozen at −20° C. and then 14 μm sections were performed with cryostat. The sections were collected on six serial slides for each eye. All quantifications were performed on the most central cryosections including (or surrounding) the optic nerve. Measurements of rows of nuclei were taken at the same geographic area for both dorsal and ventral sides of the retina in all sections and slides analyzed. The data were pooled as a mean for the dorsal or ventral zone of the retina
The frozen slides were warmed at RT, rehydrated and washed 3 times with PBS 1×. […]

C57/B16 healthy mice = assay: ERG recording of retina function in healthy mice before and one week after intravitreal injection; type: in vivo, mouse
Procedure: To test whether the UNC1999 dose tested ([…]) has a toxic effect on retina function, the retina activity of control (injected with the vehicle, DMSO) and UNC1999 treated C57/B16 healthy mice was recorded by ERG before and one week after intravitreal injection (FIG. 12). In scotopic condition, the b-wave maximum amplitude baseline of the DMSO treated group was a bit higher than the UNC1999 group one before the injection.

EZH2 = target: T1, EZH2 (Mus musculus, UniProt Q61188); assay: UNC1999 treatment of mouse embryonic fibroblasts, H3K27me3 immunostaining and western blot; type: cell-based
T1 construct: endogenous in cells; host or cells: Mouse Embryonic Fibroblasts (MEF)
Procedure: Mouse Embryonic Fibroblasts (MEF) were maintained in culture in Dulbecco's Modified Eagle's Media (DMEM), 10% fetal bovine serum (FBS) with penicillin and streptomycin, at 37° C., 5% CO2. The day before treatment, the cells were trypsinized and seeded at a density of 50,000 cells on poly-ornithine coated coverslips in 24 well plates. The next day, the media was discarded and fresh media containing various doses of the UNC1999 inhibitor dissolved in dimethyl sulfoxide (DMSO), ranging from 1 μM to 50 μM was added in triplicates, then incubated back at 37° C. for 48H. Control cells received the respective dimethyl sulfoxide DMSO used with the UNC1999. The coverslips were washed 3 times with pre-warmed phosphate buffer saline (PBS) 1× at room temperature (RT). The cells were fixed with 4% paraformaldehyde (PFA) for 12 min at RT. After two more washes in PBS, the cells were immediately proceeded for immunostaining. For western blot analysis, 200,000 cells were seeded in triplicates in 6 wells plates and treated as above.
Immunohistochemistry was performed on treated and non-treated slides. The sections were washed 3 times with cooled PBS 1× before being permeabilized with Triton X-100 for 20 min to further allow optimal antibodies-antigens interactions everywhere in the tissue and cells. The sections were blocked for 1 h with buffer containing 3% BSA (w/v), 5% NGS (v/v) in PBS 1× containing 0.3% Triton X-100. Appropriate antibodies dilutions (see list of antibodies with their respective applications in Table 2) were prepared in blocking solution and sufficient amount were laid and transferred to 4° C. over-night. The next day, the antibodies solutions were shed-off and the remaining non-interacting probes were washed off 3 times with PBS 1×. Interacting probes were then detected by applying a solution of appropriate conjugated secondary antibodies Alexa Fluor 488 or Alexa fluor 633 diluted in PBS 1× 1 h at RT. Finally, the nuclei were counterstained with 4′,6-diamidino-2-phenylindole (DAPI) solution prepared in PBS. Alternatively, for difficult to retrieve antigens such as cGMP and CDK4, special conditions were applied: Successful detection of CDK4 requires signal amplification, either with TSA* fluorescein detection kit (PerkinElmer) or 3,3′-diaminobenzidine (DAB) revelation system (Dako) according to providers instructions. The cGMP detection was achieved by permeabilizing the membrane with soft detergent solution (0.1% Triton X-100) and using Tris buffer (TBS) throughout the incubation steps. All the preparations were mounted with Mowiol and measurements were taken using an Olympus BX60 fluorescence microscope or Zeiss confocal microscopy (LSM 510 3.2 software). […]

Fam161a-/- mice = assay: Repeated weekly intravitreal injection of UNC1999 in Fam161a-/- mice, photoreceptor rows and H3K27me3; type: in vivo, mouse; settings: 2-month-old Fam161a-/- mice
Procedure: as §1
The animals were sacrificed by a 7 min exposure to CO2. […] All quantifications were performed on the most central cryosections including (or surrounding) the optic nerve. Measurements of rows of nuclei were taken at the same geographic area for both dorsal and ventral sides of the retina in all sections and slides analyzed. […]
Immunohistochemistry was performed on treated and non-treated slides. […] Interacting probes were then detected by applying a solution of appropriate conjugated secondary antibodies Alexa Fluor 488 or Alexa fluor 633 diluted in PBS 1× 1 h at RT. […]

[1] = Rd1 PN8, intravitreal, 2.5 μM final eye concentration, 4 days post injection, vs DMSO treated eye
[2] = Rd1 eyes injected at PN8, 2.5 μM final eye concentration, vs vehicle (DMSO)
[3] = mouse embryonic fibroblasts, FIG. 7B
[4] = intravitreal, weekly, four injections, solution of 36 μM

T1 sequence (Q61188 whole entry): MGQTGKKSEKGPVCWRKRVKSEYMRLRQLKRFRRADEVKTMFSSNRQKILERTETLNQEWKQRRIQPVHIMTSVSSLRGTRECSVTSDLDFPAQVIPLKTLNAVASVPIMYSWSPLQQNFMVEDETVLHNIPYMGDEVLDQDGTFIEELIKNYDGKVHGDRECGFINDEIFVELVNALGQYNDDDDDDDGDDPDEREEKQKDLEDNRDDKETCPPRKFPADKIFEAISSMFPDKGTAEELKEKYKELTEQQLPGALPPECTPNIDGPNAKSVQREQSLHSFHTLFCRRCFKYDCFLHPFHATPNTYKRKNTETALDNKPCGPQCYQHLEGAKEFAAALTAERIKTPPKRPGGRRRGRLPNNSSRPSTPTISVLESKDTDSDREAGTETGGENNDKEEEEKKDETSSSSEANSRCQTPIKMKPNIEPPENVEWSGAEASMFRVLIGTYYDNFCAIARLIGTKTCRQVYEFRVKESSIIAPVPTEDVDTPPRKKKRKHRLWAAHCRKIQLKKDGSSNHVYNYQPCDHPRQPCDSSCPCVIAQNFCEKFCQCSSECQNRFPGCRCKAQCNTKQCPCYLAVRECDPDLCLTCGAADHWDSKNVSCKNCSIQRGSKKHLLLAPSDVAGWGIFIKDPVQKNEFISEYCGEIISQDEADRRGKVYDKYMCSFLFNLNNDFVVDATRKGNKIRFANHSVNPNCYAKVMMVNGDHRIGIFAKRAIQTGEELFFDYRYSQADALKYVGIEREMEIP
T1 sequence (Q921E6 whole entry partner): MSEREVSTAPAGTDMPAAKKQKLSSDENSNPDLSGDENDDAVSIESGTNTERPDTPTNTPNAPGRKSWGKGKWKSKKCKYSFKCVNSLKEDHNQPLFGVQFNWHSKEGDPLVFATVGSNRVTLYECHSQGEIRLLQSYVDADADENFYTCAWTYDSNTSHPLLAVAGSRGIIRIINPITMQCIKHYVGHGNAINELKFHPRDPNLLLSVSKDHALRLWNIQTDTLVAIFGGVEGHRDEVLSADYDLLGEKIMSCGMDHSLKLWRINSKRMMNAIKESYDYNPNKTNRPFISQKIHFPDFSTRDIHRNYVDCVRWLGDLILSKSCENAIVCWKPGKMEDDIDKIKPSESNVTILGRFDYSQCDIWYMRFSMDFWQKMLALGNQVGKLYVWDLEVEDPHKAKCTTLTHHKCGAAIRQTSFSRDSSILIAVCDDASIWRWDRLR
T1 sequence (Q80U70 whole entry partner): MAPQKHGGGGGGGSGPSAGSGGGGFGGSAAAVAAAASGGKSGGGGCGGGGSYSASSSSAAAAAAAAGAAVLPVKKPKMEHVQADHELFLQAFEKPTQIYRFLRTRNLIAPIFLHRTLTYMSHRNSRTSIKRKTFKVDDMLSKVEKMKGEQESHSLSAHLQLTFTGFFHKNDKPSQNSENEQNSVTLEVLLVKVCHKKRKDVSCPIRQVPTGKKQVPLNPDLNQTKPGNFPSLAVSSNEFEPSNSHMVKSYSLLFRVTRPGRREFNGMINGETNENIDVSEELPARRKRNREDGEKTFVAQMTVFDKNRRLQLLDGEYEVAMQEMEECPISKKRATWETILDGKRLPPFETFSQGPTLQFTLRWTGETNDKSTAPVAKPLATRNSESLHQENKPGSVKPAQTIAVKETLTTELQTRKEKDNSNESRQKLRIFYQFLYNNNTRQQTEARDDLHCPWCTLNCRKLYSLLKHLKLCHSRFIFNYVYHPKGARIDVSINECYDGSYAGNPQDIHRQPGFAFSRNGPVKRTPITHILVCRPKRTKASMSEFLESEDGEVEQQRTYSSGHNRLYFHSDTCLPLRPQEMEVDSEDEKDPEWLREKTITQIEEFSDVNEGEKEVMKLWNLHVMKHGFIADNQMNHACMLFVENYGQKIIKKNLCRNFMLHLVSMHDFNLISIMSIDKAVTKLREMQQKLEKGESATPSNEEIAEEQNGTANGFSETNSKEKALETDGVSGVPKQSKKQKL
T1 sequence (Q60972 whole entry partner): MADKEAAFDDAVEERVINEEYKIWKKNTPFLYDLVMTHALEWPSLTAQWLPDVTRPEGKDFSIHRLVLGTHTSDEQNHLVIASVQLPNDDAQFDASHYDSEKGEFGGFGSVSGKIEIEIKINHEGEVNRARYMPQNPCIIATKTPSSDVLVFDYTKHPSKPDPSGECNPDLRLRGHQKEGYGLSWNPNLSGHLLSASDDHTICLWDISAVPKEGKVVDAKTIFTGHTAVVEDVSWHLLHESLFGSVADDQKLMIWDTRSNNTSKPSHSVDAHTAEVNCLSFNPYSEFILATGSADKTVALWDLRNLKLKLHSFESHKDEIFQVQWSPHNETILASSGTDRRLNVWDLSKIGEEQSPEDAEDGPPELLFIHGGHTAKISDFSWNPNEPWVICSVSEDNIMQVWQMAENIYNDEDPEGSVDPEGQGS

ERG photopic response vs baseline (C57/B16 healthy mice; 3 cda/s.m^2 stimulation, one week after injection, both DMSO and UNC1999 treated animals): reduced response
ERG flicker response vs baseline (C57/B16 healthy mice; 5 Hz, both treated groups (DMSO and UNC1999)): a reduction of the response occurred
ERG flicker response (C57/B16 healthy mice; 15 Hz, all groups): no differences were observed
H3K27me3 mark by immunocytochemistry labelling (EZH2; [3]): robust decreased of the mark
levels of EZH2 (EZH2; [3]): slightly affected
calculated effective dose (EZH2; obtained from increasing doses along with cell culture experiments): 6 µM
Compound: CCCc1cc(C)[nH]c(=O)c1CNC(=O)c1cc(-c2ccc(N3CCN(C(C)C)CC3)nc2)cc2c1cnn2C(C)C [UNC1999]
decline of hyper H3K27me3 signal in the ONL (Rd1 mice; [1]): 75%
decrease of number of TUNEL positive cells (Rd1 mice; [1]): 70%
H3K27me3 positive cells (in words) (Rd1 mice; [2]): marked reduction
TUNEL positive cells (in words) (Rd1 mice; [2]): marked reduction
retinal degeneration (Rd1 mice; Rd1 mouse): markedly delayed retinal degeneration
ERG photopic flicker response, treated vs control group (C57/B16 healthy mice; 5, 10 and 15 Hz, one week after intravitreal injection): No differences between the control and the treated groups were observed
ERG photopic maximum b-wave amplitude, treated vs vehicle group (C57/B16 healthy mice; healthy adult mice, one week after intravitreal injection): No differences between the two groups were noticed
ERG scotopic maximum b-wave amplitude (C57/B16 healthy mice; healthy adult mice, one week after intravitreal injection, vs DMSO group and baseline): no significant differences with the baseline; also recorded: No differences in retina activity
block of endogenous levels of H3K27me3 (EZH2; proliferating mouse embryonic fibroblasts, 2.5 μM, compared to DMSO control): efficient to block the endogenous levels of H3K27me3
levels of H3K27me3 hyper trimethylation, injected vs non-injected side (Fam161a-/- mice; dorso-ventral axis, 4 days after the last injection): did not observe any statistical differences; also recorded: no changes were observed
number of photoreceptor rows in the dorsal compartment (Fam161a-/- mice; [4]): No significant difference
number of photoreceptor rows in the ventral ONL (Fam161a-/- mice; [4]): statistical significant preservation
